Measured values reported in patent publication US20160361445A1, “COMPOUND OR SALT THEREOF AND PHOTOACOUSTIC IMAGING CONTRAST AGENT CONTAINING COMPOUND OR SALT THEREOF” (CANON KABUSHIKI KAISHA, priority 2015, published 2016).

Experiment: Photoacoustic characteristic evaluation (photoacoustic signal measurement)
Conditions: pulse laser 790 nm, 12 mJ/cm^2; contrast agent in distilled water
Description: Regarding the measurement of a photoacoustic signal, a sample was irradiated with pulse laser light, a photoacoustic signal from the sample was detected by using a piezoelectric element and was measured by a digital oscilloscope after being amplified by a high-speed preamplifier. Specific conditions were as described below. A titanium sapphire laser (produced by Lotis) was used as a light source. Regarding the conditions, the wavelength was 790 nm, the energy density was 12 mJ/cm^2, the pulse width was 20 nanoseconds, and the pulse repetition was 10 Hz. Model V303 (produced by Panametrics-NDT) was used as an ultrasonic transducer. Regarding the conditions, the center band was 1 MHz, the element size was φ0.5, the measurement distance was 25 mm (non-focus), and the amplification was +30 dB (ultrasonic preamplifier Model 5682 produced by Olympus Corporation). A measurement container was a polystyrene cuvette, the optical path length was 0.1 cm, and the sampling capacitor was about 200 μL. The measurement was performed by using DPO4104 (produced by Tektronix Corporation), where the conditions were as described below, trigger: photoacoustic light was detected by a photodiode data acquisition: average of 128 times (128 pulses)

CC1(C)C(/C=C/C=C/C=C/C=C2\N(CCCCS(=O)(=O)O)c3ccc4ccccc4c3C2(C)C)=[N+](CCCCS(=O)(=O)[O-])c2ccc3ccccc3c21 [Contrast agent (C-1), Indocyanine green]
Photoacoustic signal intensity ratio: 1.0
